Values joined by “and” are separate entries in the source; they are usually repeats but may differ in a detail not shown here. Equal entries are not always repeated.
Assays:
Genome polyprotein [1] = biological target: T1, Genome polyprotein (dengue virus type 2, UniProt P29990); type: functional, Thailand/16681/1984
Genome polyprotein [2] = biological target: T1, Genome polyprotein; type: functional, Thailand/16681/1984; remark: listed apart in the source

T1 sequence (P29990 1346-1475 limits assumed): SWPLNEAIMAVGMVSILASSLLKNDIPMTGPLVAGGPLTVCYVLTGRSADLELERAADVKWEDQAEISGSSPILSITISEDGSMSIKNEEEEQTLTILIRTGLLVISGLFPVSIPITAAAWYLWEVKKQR
T1 sequence (P29990 1476-2093 limits assumed): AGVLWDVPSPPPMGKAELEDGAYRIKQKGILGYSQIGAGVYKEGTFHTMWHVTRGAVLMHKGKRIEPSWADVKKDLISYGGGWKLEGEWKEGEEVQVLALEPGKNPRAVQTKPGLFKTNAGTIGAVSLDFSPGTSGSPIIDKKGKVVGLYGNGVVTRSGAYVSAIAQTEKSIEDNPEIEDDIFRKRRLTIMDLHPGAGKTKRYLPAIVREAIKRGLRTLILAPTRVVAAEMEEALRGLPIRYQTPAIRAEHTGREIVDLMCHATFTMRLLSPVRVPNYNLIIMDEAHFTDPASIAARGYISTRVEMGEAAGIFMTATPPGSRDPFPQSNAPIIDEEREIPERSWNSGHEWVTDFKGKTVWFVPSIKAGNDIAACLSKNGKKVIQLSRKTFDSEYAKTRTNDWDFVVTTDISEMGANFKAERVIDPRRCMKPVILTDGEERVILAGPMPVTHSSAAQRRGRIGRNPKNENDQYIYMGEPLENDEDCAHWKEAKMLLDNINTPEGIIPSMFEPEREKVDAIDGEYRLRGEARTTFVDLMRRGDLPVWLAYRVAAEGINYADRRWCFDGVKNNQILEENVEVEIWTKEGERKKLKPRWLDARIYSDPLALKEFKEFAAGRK

SMILES | IC50 (Genome polyprotein [1]) | IC50 (Genome polyprotein [2])
O=C(Nc1ccc2c(c1)CNC2)c1ccc2[nH]ncc2c1 | > 99.5 µM | > 100 µM
O=C(Nc1ccc2c(c1)CNC2)c1cccc2[nH]c(C(F)(F)F)cc12 | 91.7 µM | > 100 µM
O=C(Nc1ccc2c(c1)CNC2)c1cc(Cl)cc2[nH]c(-c3ccnn3C3CC3)nc12 | 25.2 µM | > 100 µM
CN1Cc2cc(NC(=O)c3cc(Cl)cc4[nH]ncc34)ccc2C1(C)C | > 99.5 µM | > 100 µM
O=C(Nc1ccc2nc[nH]c2c1)c1cc(F)cc2[nH]ncc12 | > 99.5 µM | > 100 µM
Cn1cc(C(F)(F)F)nc1C(=O)Nc1cc(-c2cccnc2)ccn1 | > 99.5 µM | > 100 µM
CC(C)CCN1Cc2ccc(NC(=O)c3cc(Cl)cc4[nH]ncc34)cc2C1 | > 99.5 µM | > 100 µM
C=CC[C@H]1NCc2cc(NC(=O)c3cccc4c3CC(=O)N4)ccc21 | > 99.5 µM | > 100 µM
O=C(Nc1ccc2c(c1)CNC2)c1cc(Cl)cc2[nH]c(-c3nc4c(s3)CCC4)nc12 | 16.4 µM | > 100 µM
COc1ccc2[nH]cnc2c1S(=O)(=O)Nc1ccc2c(c1)CNC2 | > 99.5 µM | > 100 µM
O=C(Nc1ccc2c(c1)CNC2)c1ccc2c(c1)CCC2 | > 99.5 µM | > 100 µM
O=C(Nc1ccc2c(c1)C(=O)OC2)c1cc(CC2CCNCC2)ccc1F | > 99.5 µM | > 100 µM
Cn1nc(C(=O)Nc2cc(-c3cccnc3)ccn2)cc1C1CC1 | > 99.5 µM | > 100 µM
O=C1OCc2ccc(NC(=O)c3cccc4c3CNC4)cc21 | > 99.5 µM | > 100 µM
NCc1ccccc1C(=O)Nc1ccc2c(c1)C(=O)OC2 | > 99.5 µM | > 100 µM
CCOC(=O)c1csc([C@H]2CCCN2C(=O)Nc2ccc3c(c2)CNC3)n1 | > 99.5 µM | > 100 µM
O=C1OCc2ccc(NC(=O)[C@H]3CNC4(CCCC4)C3)cc21 | > 99.5 µM | > 100 µM
Cc1c(C(=O)Nc2cc(-c3cccnc3)ccn2)cc(C(C)C)n1C | > 99.5 µM | > 100 µM
O=C(Nc1ccc2c(c1)CNC2)c1nc(C(F)(F)F)cs1 | > 99.5 µM | > 100 µM
O=C(Nc1ccc2c(c1)CNC2)c1cc(Cl)cc2[nH]c(-c3c[nH]c(=O)c(Br)c3)nc12 | 12.5 µM | 13.7 µM
Cn1cc2c(C(=O)Nc3ccc4c(c3)CNC4)cc(F)cc2n1 | > 99.5 µM | > 100 µM
O=C(Nc1ccc2c(c1)CNC2)c1cc(Br)cc2[nH]c([C@H]3CCCO3)nc12 | > 99.5 µM | > 100 µM

SMILES | IC50 (Genome polyprotein [1]) | IC50 (Genome polyprotein [2])
CN1C(=O)Cc2cc(C(=O)Nc3ccc4c(c3)CNC4)ccc21 | > 99.5 µM | > 100 µM
C=CC[C@H]1NCc2cc(NC(=O)c3cc(Cl)cc4[nH]ncc34)ccc21 | > 99.5 µM | > 100 µM
O=C(Nc1ccc2c(c1)CNC2)c1cccc2c1OCCN2 | > 99.5 µM | > 100 µM
C[C@](N)(C(=O)Nc1ccc2c(c1)C(=O)OC2)c1cccs1 | > 99.5 µM | > 100 µM
CC1(C)C(=O)N[C@H]2CCCN(C(=O)Nc3ccc4c(c3)CNC4)[C@H]21 | > 99.5 µM | > 100 µM
O=C1C[C@H]2[C@H](CCCN2C(=O)Nc2ccc3c(c2)CNC3)N1 | > 99.5 µM | 75.5 µM and 46.1 µM and > 100 µM (2×)
O=C(Nc1ccc2c(c1)S(=O)(=O)NC2)c1cc(Cl)cc2[nH]ncc12 | > 99.5 µM | > 100 µM
O=C(Nc1ccc2c(c1)CNC2)N1CC[C@H](Oc2ccc(C3CC3)cn2)C1 | > 99.5 µM | > 100 µM
CCc1ccc(-c2nc3c(C(=O)Nc4ccc5c(c4)CNC5)cc(Cl)cc3[nH]2)cc1 | 21.5 µM | 42.9 µM
O=C(Nc1ccc2c(c1)CNC2)N1CCC[C@H]1c1nc2ncccc2[nH]1 | > 99.5 µM | > 100 µM
Cc1c(C(=O)NCc2ccnc(OC3CCOCC3)c2)cc(C2CC2)n1C | > 99.5 µM | > 100 µM
O=C1NS(=O)(=O)c2ccc(NC(=O)c3cc(Cl)cc4[nH]ncc34)cc21 | > 99.5 µM | > 100 µM
Cc1c(C(=O)NCc2cccc(C3COC3)c2)cc(C2CC2)n1C | > 99.5 µM | > 100 µM
CC(C)(C)c1nc2c(C(=O)Nc3ccc4c(c3)CNC4)cc(Br)cc2[nH]1 | 39 µM | > 100 µM
O=C(Nc1ccc2c(c1)CNC2)N1CCC[C@@H]1COCc1ccccc1 | > 99.5 µM | > 100 µM
CNC(=O)c1cccc(C(=O)Nc2ccc3c(c2)CNC3)c1 | > 99.5 µM | > 100 µM
C#C[C@H](Nc1ccc2c(c1)CNC2)c1cccc2[nH]c(=O)[nH]c12 | > 99.5 µM | > 100 µM
O=C(Nc1ccc2c(c1)CNC2)c1cc(Cl)cc2cc[nH]c12 | > 99.5 µM | > 100 µM
O=C(Nc1ccc2c(c1)C(=O)OC2)c1cccc(CC2CNC2)c1 | > 99.5 µM | > 100 µM
C=CC[C@H]1NCc2cc(NC(=O)c3cc(F)cc4[nH]ncc34)ccc21 | 72.9 µM | 39 µM
O=C(Nc1ccc2c(c1)CNC2)c1cccc2[nH]ccc12 | > 99.5 µM | > 100 µM
O=C(Nc1cc([C@H]2CCOC2)ccn1)c1ccc2ncsc2c1 | > 99.5 µM | > 100 µM

SMILES | IC50 (Genome polyprotein [1]) | IC50 (Genome polyprotein [2])
O=C1Cc2c(cc(F)cc2C(=O)Nc2ccc3c(c2)CNC3)N1 | 32.8 µM | 30 µM and 25.6 µM and 21 µM
O=C1OCc2ccc(NC(=O)[C@H]3CCNC3)cc21 | > 99.5 µM | > 100 µM
CC(C)NC(=O)[C@H](Nc1ccc2c(c1)CNC2)c1cc(F)cc2[nH]ncc12 | > 99.5 µM | > 100 µM
O=C(Nc1ccc2[nH]c(=O)[nH]c2c1)c1cc(F)cc2[nH]ncc12 | > 99.5 µM | > 100 µM
O=C(Nc1ccc2c(c1)CNC2)c1cc(Cl)ccc1-n1cnnn1 | > 99.5 µM | > 100 µM
O=C1OCc2ccc(NC(=O)[C@H]3CNCc4[nH]ncc43)cc21 | > 99.5 µM | > 100 µM
O=C(Nc1cc(-c2cccnc2)ccn1)c1cc(C2CC2)no1 | > 99.5 µM | > 100 µM
Cn1c(=O)[nH]c2c(C(=O)Nc3ccc4c(c3)CNC4)cc(Br)cc21 | > 99.5 µM | 42.8 µM and 34.9 µM
O=C(Nc1ccc2c(c1)CNC2)c1cc(Cl)cc2[nH]c(-c3cc(C4CC4)[nH]n3)nc12 | 7.32 µM and 5.15 µM | > 100 µM
N#C[C@H](Nc1ccc2c(c1)CNC2)c1cccc2ncccc12 | > 99.5 µM | > 100 µM
O=C(Nc1ccc2c(c1)CNC2)c1cc(F)cc2c1CCC2 | > 99.5 µM | > 100 µM
O=C(Nc1ccc2c(c1)CNC2)c1cc(Cl)cc2[nH]c(CCc3cccnc3)nc12 | 44.7 µM | > 100 µM
NC[C@H]1CC[C@@H](NC(=O)c2cc(Cl)cc3[nH]ncc23)CC1 | > 99.5 µM | > 100 µM
O=C(Nc1cc(-c2cccnc2)ccn1)c1cnc(C2CC2)s1 | > 99.5 µM | > 100 µM
CC1(C)C[C@H](C(=O)Nc2ccc3c(c2)C(=O)OC3)CCN1 | > 99.5 µM | > 100 µM
Cc1nnc(SC[C@H]2CCCN2C(=O)Nc2ccc3c(c2)CNC3)s1 | > 99.5 µM | > 100 µM
O=C(Nc1ccc2c(c1)CNC2)c1cccc2nc(O)ccc12 | > 99.5 µM | 47.3 µM and 4.98 µM
O=C1Cc2cc(C(=O)Nc3ccc4c(c3)CNC4)c(Cl)cc2N1 | > 99.5 µM | 35.9 µM and 22.7 µM
Cc1nc2ccc(C(=O)Nc3ccc4c(c3)CNC4)cc2s1 | > 99.5 µM | > 100 µM
COCc1cc(Cl)cc(C(=O)Nc2ccc3c(c2)CNC3)c1 | > 99.5 µM | > 100 µM
O=C(Nc1ccc2c(c1)CNC2)c1nc(-c2ccccc2)cs1 | > 99.5 µM | > 100 µM
O=C(Nc1ccc2c(c1)CNC2)c1cc(Cl)cc(N2CCCC2=O)c1 | > 99.5 µM | > 100 µM

SMILES | IC50 (Genome polyprotein [1]) | IC50 (Genome polyprotein [2])
COc1cc(Cl)cc(C(=O)Nc2ccc3c(c2)CNC3)c1 | > 99.5 µM | > 100 µM
O=C1Cc2cc(C(=O)Nc3ccc4c(c3)CNC4)ccc2N1 | 9.95 µM and 7.04 µM and 6.09 µM | > 100 µM
CC(=O)N1Cc2ccc(NC(=O)c3cc(Cl)cc4[nH]ncc34)cc2C1 | > 99.5 µM | > 100 µM
COc1ncc(Cl)cc1C(=O)Nc1ccc2c(c1)CNC2 | > 99.5 µM | > 100 µM
NCCC1(C(=O)Nc2ccc3c(c2)C(=O)OC3)CCCC1 | > 99.5 µM | > 100 µM
Cn1nc(C(=O)Nc2cc([C@H]3CCOC3)ccn2)cc1C1CC1 | > 99.5 µM | > 100 µM
O=C1CCCc2cc(C(=O)Nc3ccc4c(c3)CNC4)ccc2N1 | > 99.5 µM | > 100 µM
O=C(Nc1ccc2c(c1)CNC2)c1cc(Cl)cc2nn(-c3ccccc3)nc12 | 7.45 µM and 8.05 µM and 6.62 µM | 12.9 µM
CCC[C@H](C)N1Cc2ccc(NC(=O)c3cc(Cl)cc4[nH]ncc34)cc2C1 | > 99.5 µM | > 100 µM
O=C(Nc1ccc2c(c1)CNC2)c1cccc2cn[nH]c12 | > 99.5 µM and 55.6 µM | > 100 µM
CO[C@]1(C(=O)Nc2ccc3c(c2)C(=O)OC3)CCCNC1 | > 99.5 µM | > 100 µM
O=C(Nc1cc2c(cc1Br)CNC2)c1cc(F)cc2[nH]ncc12 | 67 µM | 58 µM
C#Cc1cc(Cl)cc(C(=O)Nc2ccc3c(c2)CNC3)c1 | > 99.5 µM | > 100 µM
O=C1Cc2c(cc(Br)cc2C(=O)Nc2ccc3c(c2)C(=O)OC3)N1 | > 99.5 µM | > 100 µM
O=C(Nc1ccc2c(c1)CNC2)c1cc(Cl)cc2ccccc12 | > 99.5 µM | > 100 µM
O=C1CN(C(=O)Nc2ccc3c(c2)CNC3)[C@H]2CCCC[C@H]2N1 | > 99.5 µM | > 100 µM
O=C(Nc1ccc2c(c1)CNC2)N1CCC[C@H]1Cc1cc2ccccc2o1 | > 99.5 µM | > 100 µM
Cn1nc(C(F)(F)F)cc1C(=O)Nc1cc(-c2cccnc2)ccn1 | > 99.5 µM | > 100 µM
O=C(Nc1ccc2c(c1)CNC2)c1cc(Cl)cc2[nH]c(-c3cnc(C4CC4)o3)nc12 | 58.7 µM | 19.4 µM
O=C(Nc1ccc2c(c1)CNC2)c1cc(Cl)cc(N2CCCC2)c1 | > 99.5 µM | > 100 µM
CC(=O)Nc1cccc(C(=O)Nc2ccc3c(c2)CNC3)c1 | > 99.5 µM | > 100 µM
